Experimental data reported in publication PMC10778758, “Dithioethanol (DTE)-Conjugated Deoxyribose Cyclic Dinucleotide Prodrugs (DTE-dCDNs) as STING Agonist” (International Journal of Molecular Sciences, 2023).

Assay: Release of parent dCDN from prodrug 9 in cell lysates (HPLC)
Type: in vitro ADME
Details: 100 μM prodrug, 37 °C
Experimental: To analyze the reduction dependency, we performed the in vitro cleavage test by incubating prodrug 9 with a reductive substance such as GSH or DTT and cell lysates at 37 °C and then determined the change with HPLC. […] As the reductive substance or cell lysates were added, the peak for prodrug 9 disappeared and the new peaks at 1.2 min appeared in 0.5 h and 2 h, respectively. The released parent dCDN was also confirmed with 3′,3′-c-di-dAMP through UPLC-MS (Figure S1).
Prodrug 9 release parent drug initiated by cell lysates, DTT, and GSH. HEK 293T cells were plated in a 6-well plate at a density of 10^6 cell per well. After 48 h, the culture media was removed and washed with 500 μL PBS buffer. Cells were collected into 1.5 mL microtubes. An amount of 200 μL weak RIPA lysis buffer containing 1 mM protease inhibitor PMSF (LEAGENE, Trenton, NJ, USA) was added to each tube for 30 min. After centrifugation at 13,000 rpm for 10 min, the supernatant (180 μL) was transferred into a new tube. An amount of 100 μM prodrug 9 was added into the cell lysate (60 μL) in an air-bath incubator at 37 °C. […]
Figure 3 Parent dCDNs release in GSH, DTT (a), and cell lysates (b). An amount of 100 μM prodrug 9 was added into the 10 mM GSH, 10 mM DTT, and cell lysates for various times (0.5 h and 2 h) at 37 °C and analyzed with HPLC (Agilent 1260, Santa Clara, CA, USA).

Nc1ncnc2c1ncn2C1CC2OP(=O)(OCCSSc3ccccn3)OCC3OC(n4cnc5c(N)ncnc54)CC3OP(=O)(OCCSSc3ccccn3)OCC2O1 (stereo not shown) [prodrug 9]
time at which prodrug peak disappeared and parent dCDN peak appeared: 2 h
